Measurements published in US11274332B2, “Methods of administering 3,4-diaminopyridine” (SERB SA, priority 2011, dated 2022).
Where two headings read alike, the source gives them in different places.

Experiment: Example 18 Part 2: multiple dose PK (20 mg QID) of 3,4-DAP and 3-N-acetyl metabolite in slow and fast acetylators
Type: in vivo, human
Conditions: for AUC(0-t) / Cmax / Tmax / Vd/F / half-life: both sexes, human, plasma, oral, 20 mg; for Tmax: read-out: Mean Tmax; for Vd/F: read-out: Mean Vz/F; for half-life: read-out: Mean t1/2 (converted)
Description: The following method was used to analyze concentrations of 3,4-diaminopyridine and N-(4-aminopyridin-3-yl)acetamide in plasma and urine samples for the experiments in Example 18. In the LC/MS/MS method, the human plasma and urine samples were extracted using acetonitrile containing 0.1% formic acid. Samples were analyzed by using HPLC with positive ion electrospray MS/MS detection. The column was an Atlantis HILIC Silica column (3 μm, 3×50 mm) at a temperature of 40° C. Mobile phase A was water containing ammonium formate (20 mM) and 0.1% formic acid. Mobile phase B was acetonitrile/isopropanol (90/10; v/v) containing 0.1% formic acid. The flow rate was 0.90 mL/minute. The gradient conditions for human plasma and urine samples were as follows:
The LC/MS/MS method was validated to quantify 3,4-DAP in human plasma in the linear calibration range of 0.500 to 500 ng/mL and from 1.00 to 1000 ng/mL for the 3-N-acetyl metabolite.
The primary objective of the study was to assess the safety and tolerability of 3,4-DAP phosphate after single and multiple doses. The secondary objectives of the study were • Part 1 only: To determine the dose-related PK profile of amifampridine and of 3-N-acetyl amifampridine after single, escalating doses of 3,4-DAP phosphate • Part 2 only: To assess the steady-state plasma PK and accumulation of amifampridine and of 3-N-acetyl amifampridine over multiple days of dosing with 3,4-DAP phosphate An exploratory objective was to examine the overall activity of the N-acetyl transferase enzymes on the metabolism of amifampridine by assessing the PK of amifampridine and 3-N-acetyl amifampridine with phenotypic acetylation activity and genotyping determination of NAT2 gene polymorphisms. Study Design and Plan
This open-label study in healthy subjects (male and female) was conducted in 2 parts. A total of 26 healthy male and female subjects, 12 in Part 1 (at least 5 of each sex), 4 in Part 2 Group 1, and 10 in Part 2 Group 2 (at least 4 of each sex) were enrolled into the study. The same subjects were not enrolled to participate in both parts. Subjects in Part 2 were dosed only after all subjects of Part 1 completed dosing and at least 24-hours of follow-up safety evaluation after the last dose were completed.
All subjects were characterized for their metabolic acetylation phenotype and NAT2 genotype in order to divide subjects into two groups of acetylators. Volunteers were genetically typed for highly variant alleles of the N-acetyl transferase 2 enzyme (NAT2) domain on chromosome 8 (according to Example 16) and were phenotyped for acetylation rates with a caffeine challenge test (according to Example 15a). Approximately equal numbers of slow and fast acetylators (as defined by a caffeine challenge test in Example 15a) were enrolled in each group. In Part 2, very slow acetylators with NAT2 activity (ratio 1, Example 15a) below 0.06 were excluded from participation in the study. In each part of the study, subjects were assessed for PK, safety, and tolerability and all doses were administered within 30 min of ingestion of a meal or a snack.
Part 2, Group 1: Four sentinel subjects were selected after determining their acetylator status. Two were fast acetylators and two were slow acetylators. All four were dosed on Day 1 with 4 oral doses of 20 mg of 34-DAP phosphate (given at 4-hour dosing intervals). On Days […] and 2, safety and tolerability data was collected. Subjects left the clinic on Day 2. The safety and tolerability data collected for these 4 sentinel subjects were reviewed. The safety and tolerability results of Days 1 and 2 for these subjects were acceptable and thus Part 2 Group 2 was commenced. Minimally acceptable safety was defined as the absence of clinical seizure activity. Subjects in Group 1 returned to the clinic for their follow-up assessments 2-4 days following their last dose.
Each subject was given a final morning dose of 20 mg 3,4-DAP phosphate on Day 4. […]

[1] = Day 1, Dose 1, fast acetylators, 20 mg QID
[2] = Day 1, Dose 1, slow acetylators, 20 mg QID
[3] = Day 1, Dose 2, fast acetylators, 20 mg QID
[4] = Day 1, Dose 2, slow acetylators, 20 mg QID
[5] = Day 1, Dose 3, fast acetylators, 20 mg QID
[6] = Day 1, Dose 3, slow acetylators, 20 mg QID
[7] = Day 1, Dose 4, fast acetylators, 20 mg QID
[8] = Day 1, Dose 4, slow acetylators, 20 mg QID
[9] = Day 3, Dose 1, fast acetylators, 20 mg QID
[10] = Day 3, Dose 1, slow acetylators, 20 mg QID
[11] = Day 3, Dose 2, fast acetylators, 20 mg QID
[12] = Day 3, Dose 2, slow acetylators, 20 mg QID
[13] = Day 3, Dose 3, fast acetylators, 20 mg QID
[14] = Day 3, Dose 3, slow acetylators, 20 mg QID
[15] = Day 3, Dose 4, fast acetylators, 20 mg QID
[16] = Day 3, Dose 4, slow acetylators, 20 mg QID
[17] = Day 4, 20 mg single dose, fast acetylators
[18] = Day 4, 20 mg single dose, slow acetylators

With `Nc1ccncc1N` [3,4-DAP, 3,4-diaminopyridine] the “Mean CL/F” value [1] was 898 L/h, the “Mean CL/F” value [2] was 152 L/h and the “Mean CL/F” value [3] was 757 L/h. The “Mean CL/F” value [4] was 107 L/h, the “Mean CL/F” value [5] was 879 L/h and the “Mean CL/F” value [6] was 117 L/h. The “Mean CL/F” value [7] was 885 L/h, the “Mean CL/F” value [8] was 101 L/h and the “Mean CL/F” value [9] was 973 L/h. The “Mean CL/F” value [10] was 124 L/h, the “Mean CL/F” value [11] was 607 L/h and the “Mean CL/F” value [12] was 92.9 L/h. For the same molecule, the “Mean CL/F” value [13] was 817 L/h, the “Mean CL/F” value [14] was 103 L/h and the “Mean CL/F” value [15] was 795 L/h. The “Mean CL/F” value [16] was 73.2 L/h, the “Mean CL/F” value [17] was 673 L/h and the “Mean CL/F” value [18] was 108 L/h. For the same molecule, the AUC(0-t) (Day 1, Dose 1, fast acetylators, 20 mg QID, read-out: Mean AUC0-4) was 23.5 ng·h/mL, the Cmax (Day 1, Dose 1, fast acetylators, 20 mg QID, read-out: Mean Cmax) was 24.4 ng/mL and the Tmax [1] was 0.809 h. It also gave a Vd/F [1] of 1330 L, a half-life [1] of 1.12 h and an AUC(0-t) (Day 1, Dose 1, slow acetylators, 20 mg QID, read-out: Mean AUC0-4) of 115 ng·h/mL. For the same molecule, the Cmax (Day 1, Dose 1, slow acetylators, 20 mg QID, read-out: Mean Cmax) was 74.8 ng/mL, the Tmax [2] was 1.12 h and the Vd/F [2] was 299 L. It also gave a half-life [2] of 1.39 h, an AUC(0-t) (Day 1, Dose 1-4, fast acetylators, 20 mg QID, read-out: Mean AUC0-24) of 97.9 ng·h/mL and an AUC(0-t) (Day 1, Dose 1-4, slow acetylators, 20 mg QID, read-out: Mean AUC0-24) of 630 ng·h/mL. For the same molecule, the AUC(0-t) (Day 1, Dose 2, fast acetylators, 20 mg QID, read-out: Mean AUC0-4) was 22.5 ng·h/mL, the Cmax (Day 1, Dose 2, fast acetylators, 20 mg QID, read-out: Mean Cmax) was 13.3 ng/mL and the Tmax [3] was 1.07 h. The Vd/F [3] was 1340 L, the half-life [3] was 1.31 h and the AUC(0-t) (Day 1, Dose 2, slow acetylators, 20 mg QID, read-out: Mean AUC0-4) was 152 ng·h/mL. For the same molecule, the Cmax (Day 1, Dose 2, slow acetylators, 20 mg QID, read-out: Mean Cmax) was 83.7 ng/mL, the Tmax [4] was 1.14 h and the Vd/F [4] was 293 L. The half-life [4] was 1.93 h, the AUC(0-t) (Day 1, Dose 3, fast acetylators, 20 mg QID, read-out: Mean AUC0-4) was 24.1 ng·h/mL and the Cmax (Day 1, Dose 3, fast acetylators, 20 mg QID, read-out: Mean Cmax) was 16.8 ng/mL. It also gave a Tmax [5] of 0.583 h, a Vd/F [5] of 1720 L and a half-life [5] of 1.3 h. For the same molecule, the AUC(0-t) (Day 1, Dose 3, slow acetylators, 20 mg QID, read-out: Mean AUC0-4) was 140 ng·h/mL, the Cmax (Day 1, Dose 3, slow acetylators, 20 mg QID, read-out: Mean Cmax) was 72.2 ng/mL and the Tmax [6] was 0.857 h. It also gave a Vd/F [6] of 269 L, a half-life [6] of 1.59 h and an AUC(0-t) (Day 1, Dose 4, fast acetylators, 20 mg QID, read-out: Mean AUC0-4) of 23.7 ng·h/mL. It also gave a Cmax (Day 1, Dose 4, fast acetylators, 20 mg QID, read-out: Mean Cmax) of 16.4 ng/mL, a Tmax [7] of 0.643 h and a Vd/F [7] of 1730 L. For the same molecule, the half-life [7] was 1.49 h, the AUC(0-t) (Day 1, Dose 4, slow acetylators, 20 mg QID, read-out: Mean AUC0-4) was 145 ng·h/mL and the Cmax (Day 1, Dose 4, slow acetylators, 20 mg QID, read-out: Mean Cmax) was 67.1 ng/mL. It also gave a Tmax [8] of 1.29 h, a Vd/F [8] of 338 L and a half-life [8] of 2.52 h. For the same molecule, the AUC(0-t) (Day 3, Dose 1, fast acetylators, 20 mg QID, read-out: Mean AUC0-4) was 24.9 ng·h/mL, the Cmax (Day 3, Dose 1, fast acetylators, 20 mg QID, read-out: Mean Cmax) was 24 ng/mL and the Tmax [9] was 0.8 h. For the same molecule, the Vd/F [9] was 1390 L, the half-life [9] was 1.07 h and the AUC(0-t) (Day 3, Dose 1, slow acetylators, 20 mg QID, read-out: Mean AUC0-4) was 130 ng·h/mL. The Cmax (Day 3, Dose 1, slow acetylators, 20 mg QID, read-out: Mean Cmax) was 81.2 ng/mL, the Tmax [10] was 1 h and the Vd/F [10] was 283 L. For the same molecule, the half-life [10] was 1.6 h, the AUC(0-t) (Day 3, Dose 1-4, fast acetylators, 20 mg QID, read-out: Mean AUC0-24) was 111 ng·h/mL and the AUC(0-t) (Day 3, Dose 1-4, slow acetylators, 20 mg QID, read-out: Mean AUC0-24) was 701 ng·h/mL. The AUC(0-t) (Day 3, Dose 2, fast acetylators, 20 mg QID, read-out: Mean AUC0-4) was 28.5 ng·h/mL, the Cmax (Day 3, Dose 2, fast acetylators, 20 mg QID, read-out: Mean Cmax) was 18.7 ng/mL and the Tmax [11] was 0.9 h. It also gave a Vd/F [11] of 1110 L, a half-life [11] of 1.34 h and an AUC(0-t) (Day 3, Dose 2, slow acetylators, 20 mg QID, read-out: Mean AUC0-4) of 164 ng·h/mL. The Cmax (Day 3, Dose 2, slow acetylators, 20 mg QID, read-out: Mean Cmax) was 96.1 ng/mL, the Tmax [12] was 1 h and the Vd/F [12] was 260 L. The half-life [12] was 1.97 h, the AUC(0-t) (Day 3, Dose 3, fast acetylators, 20 mg QID, read-out: Mean AUC0-4) was 25.8 ng·h/mL and the Cmax (Day 3, Dose 3, fast acetylators, 20 mg QID, read-out: Mean Cmax) was 21.9 ng/mL. For the same molecule, the Tmax [13] was 0.532 h, the Vd/F [13] was 2200 L and the half-life [13] was 1.73 h. It also gave an AUC(0-t) (Day 3, Dose 3, slow acetylators, 20 mg QID, read-out: Mean AUC0-4) of 156 ng·h/mL, a Cmax (Day 3, Dose 3, slow acetylators, 20 mg QID, read-out: Mean Cmax) of 80.9 ng/mL and a Tmax [14] of 0.8 h. The Vd/F [14] was 241 L, the half-life [14] was 1.63 h and the AUC(0-t) (Day 3, Dose 4, fast acetylators, 20 mg QID, read-out: Mean AUC0-4) was 25.1 ng·h/mL. For the same molecule, the Cmax (Day 3, Dose 4, fast acetylators, 20 mg QID, read-out: Mean Cmax) was 16.2 ng/mL, the Tmax [15] was 0.8 h and the Vd/F [15] was 1870 L. It also gave a half-life [15] of 1.82 h, an AUC(0-t) (Day 3, Dose 4, slow acetylators, 20 mg QID, read-out: Mean AUC0-4) of 168 ng·h/mL and a Cmax (Day 3, Dose 4, slow acetylators, 20 mg QID, read-out: Mean Cmax) of 97.1 ng/mL. For the same molecule, the Tmax [16] was 0.6 h, the Vd/F [16] was 376 L and the half-life [16] was 3.56 h. For the same molecule, the AUC(0-t) (Day 4, 20 mg single dose, fast acetylators, read-out: Mean AUC0-4) was 22.6 ng·h/mL, the AUC(0-t) (Day 4, 20 mg single dose, fast acetylators, read-out: Mean AUC0-24) was 25.9 ng·h/mL and the Cmax (Day 4, 20 mg single dose, fast acetylators, read-out: Mean Cmax) was 13.6 ng/mL. For the same molecule, the Tmax [17] was 0.9 h, the Vd/F [17] was 1770 L and the half-life [17] was 1.95 h. The AUC(0-t) (Day 4, 20 mg single dose, slow acetylators, read-out: Mean AUC0-4) was 133 ng·h/mL, the AUC(0-t) (Day 4, 20 mg single dose, slow acetylators, read-out: Mean AUC0-24) was 186 ng·h/mL and the Cmax (Day 4, 20 mg single dose, slow acetylators, read-out: Mean Cmax) was 72.5 ng/mL. For the same molecule, the Tmax [18] was 1.2 h, the Vd/F [18] was 486 L and the half-life [18] was 3.24 h. For the same molecule, the Cmax (Days 1-4, 20 mg QID, fast acetylators, read-out: plasma mean Cmax values, range) was 13.3 to 24.4 ng/mL and the Cmax (Days 1-4, 20 mg QID, slow acetylators, read-out: plasma mean Cmax values, range) was 67.1 to 97.1 ng/mL.
